Where two headings read alike, the source gives them in different places.
Legend:
[1] = system: SD rats; details: rat, in vivo
[2] = system: male Sprague Dawley rats; format: in vivo, rat
[3] = system: Male SD rats; experiment: J147 dose-response, 2-hour suture MCAO-induced ischemia followed by reperfusion, 72 h (Example 3); format: in vivo, rat
[4] = J147 1.0, 10, 30 mg/kg at 2 hours after onset of ischemia, 72 h after stroke, dose-dependent manner

## COc1cccc(/C=N/N(C(=O)C(F)(F)F)c2ccc(C)cc2C)c1 [Compound J147]
[1]
  protection from stroke in the absence of reperfusion (infarction, TTC-stained sections): fails to provide any significant protection
[2]; iv, doses of 1, 10 and 30 mg/kg tested
  optimal effective dose: 10 mg/kg
[2]; rat, in vivo
  infarct volume (TTC-stained sections): large reduction
  infarct volume relative to placebo (TTC-stained sections): insignificant reduction
[2]; rat, in vivo, ip
  infarct volume (TTC-stained sections): modest reduction
[3]; 1.0, 10, 30 mg/kg tested
  effective optimal dose for the treatment of acute ischemic stroke in rats: 10 mg/kg
[3]; [4]
  infarct volumes: significantly reduced
  neurological deficit after reperfusion (Bederson score): significantly reduced
